Data reported in US20260116920A1, “HUMAN TRANSFERRIN RECEPTOR BINDING PEPTIDE” (PEPTIDREAM INC., priority 2021, published 2026).
Positions of bridges follow the written chain, without caps; N, C: chain ends. Non-standard residues stand in square brackets, D forms with d. Residues, ends and D or L forms follow the SMILES beside them. *: point of attachment. Trp(1-CH2COOH) = N[C@@H](Cc1cn(CC(=O)O)c2ccccc12)C(=O)O; Nle(6-morpholino) = N[C@@H](CCCCN1CCOCC1)C(=O)O; Phe(3-COOH) = N[C@@H](Cc1cccc(C(=O)O)c1)C(=O)O; Trp(7-aza) = N[C@@H](Cc1c[nH]c2ncccc12)C(=O)O; NH(CH2CH2O)8Me = COCCOCCOCCOCCOCCOCCOCCOCCN*; NMePhe(3-Cl) = CN[C@@H](Cc1cccc(Cl)c1)C(=O)O; 3Pal(6-NH2) = Nc1ccc(C[C@H](N)C(=O)O)cn1; NMeY = CN[C@@H](Cc1ccc(O)cc1)C(=O)O; PEG4 = NCCOCCOCCOCCOCCC(=O)O; Carboxymethyl = O=C(O)C*

Molecular target: T1, human transferrin receptor (hTfR) (Homo sapiens, UniProt P02786)
T1 construct: made in house
T1 sequence (P02786 89-760 limits assumed): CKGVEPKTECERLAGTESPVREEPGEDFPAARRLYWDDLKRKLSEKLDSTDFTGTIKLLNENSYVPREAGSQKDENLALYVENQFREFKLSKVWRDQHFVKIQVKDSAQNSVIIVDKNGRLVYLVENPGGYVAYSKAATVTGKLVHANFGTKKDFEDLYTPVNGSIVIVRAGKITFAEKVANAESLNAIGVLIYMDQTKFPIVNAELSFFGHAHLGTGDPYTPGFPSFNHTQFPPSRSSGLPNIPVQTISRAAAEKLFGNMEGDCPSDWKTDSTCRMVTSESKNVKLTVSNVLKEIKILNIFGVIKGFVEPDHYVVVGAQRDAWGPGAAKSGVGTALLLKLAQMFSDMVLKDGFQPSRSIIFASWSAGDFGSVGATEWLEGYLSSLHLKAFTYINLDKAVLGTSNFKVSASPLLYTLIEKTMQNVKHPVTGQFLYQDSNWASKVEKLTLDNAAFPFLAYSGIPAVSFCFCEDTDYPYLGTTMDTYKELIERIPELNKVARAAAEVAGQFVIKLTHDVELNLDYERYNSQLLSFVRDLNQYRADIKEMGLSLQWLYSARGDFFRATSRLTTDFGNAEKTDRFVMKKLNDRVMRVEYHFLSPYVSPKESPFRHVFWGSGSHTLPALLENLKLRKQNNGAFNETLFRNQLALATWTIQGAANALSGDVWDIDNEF
Test: Evaluation of molecular interaction between transferrin receptor (hTfR) and peptide using surface plasmon resonance (SPR)
Format: binding
Conditions: peptide with linker, surface plasmon resonance; read-out: SPR (KD class for binding to hTfR)
Summary of the method: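 Single-cycle SPR kinetics, KD by least-squares sensorgram fitting, with peptide series of 100, 50, 25, 10 and 5 nM. Running buffer: 10 mM HEPES pH 8.0, 150 mM NaCl, 0.05% Tween 20, 0.1% BSA, 1.0% DMSO. Surface: hTfR dimer covalently coupled (EDC/NHS) onto Ni-NTA chip.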

Kd [nM]	SMILES
1 to 100	CC[C@H](C)[C@@H]1NC(=O)[C@H](Cc2ccc(OCC(=O)O)cc2)NC(=O)[C@H](Cc2ccc(N)nc2)NC(=O)[C@H](CC(N)=O)NC(=O)[C@H](Cc2c[nH]c3ccccc23)NC(=O)[C@H](C(C)C)NC(=O)[C@H](Cc2cccc(Cl)c2)N(C)C(=O)[C@H](C(C)C)NC(=O)[C@H](C)NC(=O)CSC[C@@H](C(=O)NCCOCCOCCOCCOCCC(N)=O)NC(=O)[C@H](Cc2ccc(O)cc2)N(C)C(=O)[C@H](Cc2cccc(C(=O)O)c2)NC(=O)[C@H](CCCNC(=N)N)NC(=O)[C@H](CCC(=O)NCCOCCOCCOCCOCCOCCOCCOCCOC)NC(=O)[C@H]([C@@H](C)CC)NC1=O [compound 238] ({CH2CO}-AV[NMePhe(3-Cl)]VWN[3Pal(6-NH2)]Y(Carboxymethyl)IIE(NH(CH2CH2O)8Me)R[Phe(3-COOH)][NMeY]C[PEG4]-NH2; thioether N-15)
1 to 100	CC[C@H](C)[C@@H]1NC(=O)[C@H](Cc2ccc(OCC(=O)O)cc2)NC(=O)[C@H](Cc2ccc(N)nc2)NC(=O)[C@H](CC(N)=O)NC(=O)[C@H](Cc2c[nH]c3ncccc23)NC(=O)[C@H](C(C)C)NC(=O)[C@H](Cc2cccc(Cl)c2)N(C)C(=O)[C@H](C(C)C)NC(=O)[C@H](C)NC(=O)CSC[C@@H](C(=O)NCCOCCOCCOCCOCCC(N)=O)NC(=O)[C@H](Cc2ccc(O)cc2)N(C)C(=O)[C@H](Cc2cccc(C(=O)O)c2)NC(=O)[C@H](CCCNC(=N)N)NC(=O)[C@H](CCC(=O)NCCOCCOCCOCCOCCOCCOCCOCCOC)NC(=O)[C@H]([C@@H](C)CC)NC1=O [compound 239] ({CH2CO}-AV[NMePhe(3-Cl)]V[Trp(7-aza)]N[3Pal(6-NH2)]Y(Carboxymethyl)IIE(NH(CH2CH2O)8Me)R[Phe(3-COOH)][NMeY]C[PEG4]-NH2; thioether N-15)
1 to 100	CC[C@H](C)[C@@H]1NC(=O)[C@H](Cc2ccc(OCC(=O)O)cc2)NC(=O)[C@H](Cc2ccc(O)cc2)NC(=O)[C@H](CC(N)=O)NC(=O)[C@H](Cc2cn(CC(=O)O)c3ccccc23)NC(=O)[C@H](C(C)C)NC(=O)[C@H](Cc2cccc(Cl)c2)N(C)C(=O)[C@H](C(C)C)NC(=O)[C@H](C)NC(=O)CSC[C@@H](C(=O)NCCOCCOCCOCCOCCC(N)=O)NC(=O)[C@H](Cc2ccc(O)cc2)N(C)C(=O)[C@H](Cc2cccc(C(=O)O)c2)NC(=O)[C@H](CCCCN2CCOCC2)NC(=O)[C@H](CCCCN2CCOCC2)NC(=O)[C@H]([C@@H](C)CC)NC1=O [compound 240] ({CH2CO}-AV[NMePhe(3-Cl)]V[Trp(1-CH2COOH)]NYY(Carboxymethyl)II[Nle(6-morpholino)][Nle(6-morpholino)][Phe(3-COOH)][NMeY]C[PEG4]-NH2; thioether N-15)
1 to 100	CC[C@H](C)[C@@H]1NC(=O)[C@H](Cc2ccc(O)cc2)NC(=O)[C@H](Cc2ccc(O)cc2)NC(=O)[C@H](CC(N)=O)NC(=O)[C@H](Cc2c[nH]c3ccccc23)N(C)C(=O)[C@H](C(C)C)NC(=O)[C@H](Cc2ccccc2)N(C)C(=O)[C@H](C(C)C)NC(=O)[C@H](C)NC(=O)CSC[C@@H](C(=O)NCC(=O)N[C@H](CCC(=O)O)C(=O)N[C@H](CCC(=O)O)C(=O)N[C@H](CCC(=O)O)C(=O)N[C@H](CO)C(=O)N[C@H](CO)C(=O)N[C@@H](CCCCN=[N+]=[N-])C(N)=O)NC(=O)[C@H](Cc2ccc(O)cc2)N(C)C(=O)[C@H](Cc2ccc(O)cc2)NC(=O)[C@H](CCCNC(=N)N)NC(=O)[C@H](CCCCN)NC(=O)[C@H]([C@@H](C)CC)NC1=O [compound 241]
